Measurements taken from US7807676B2, “Diketo-Piperazine and Piperidine derivatives as antiviral agents” (priority 2006, dated 2010).

System: HIV-1 single-round infectious reporter virus
Assay: Single-round infectious HIV-1 luciferase reporter virus infection of HeLa CD4 cells (antiviral EC50)
Format: cell-based
Details: Human immunodeficiency virus 1, HeLa, read-out: EC50 Group from Table 3
Procedure, shortened: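 Env-pseudotyped single-round HIV-1 reporter virus (env-deleted provirus with luciferase in place of nef, made in 293 cells) infected HeLa CD4 cells at MOI ~0.01 with compound present, up to 10 μM final. Luciferase luminescence read after 72 h at 37 °C; EC50 from four-parameter logistic fit of % inhibition over 10 concentrations.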

Row | Structure (SMILES) | EC50 [nM]
1 | COc1cnc(-c2cc(C(C)(C)O)[nH]n2)c2[nH]cc(C(=O)C(=O)N3CCN(c4nnnn4-c4ccccn4)CC3)c12 [B-68] | < 500
2 | COc1nc(-c2ncc(OC)c3c(C(=O)C(=O)N4CCN(c5nnnn5-c5ccccn5)CC4)c[nH]c23)cs1 [B-69] | < 500
3 | COc1cnc(-c2cscn2)c2[nH]cc(C(=O)C(=O)N3CCN(c4nnnn4-c4ccccn4)CC3)c12 [B-70] | < 500
4 | COc1cnc(-c2cncs2)c2[nH]cc(C(=O)C(=O)N3CCN(c4nnnn4-c4ccccn4)CC3)c12 [B-71] | < 500
5 | COc1cnc(-c2cc[nH]n2)c2[nH]cc(C(=O)C(=O)N3CCN(c4nnnn4-c4ccccn4)CC3)c12 [B-72] | < 500
6 | COc1cnc(-c2ccn(C)n2)c2[nH]cc(C(=O)C(=O)N3CCN(c4nnnn4-c4ccccn4)CC3)c12 [B-73] | < 500
7 | COc1cnc(-c2ccn(CC(=O)O)n2)c2c1c(C(=O)C(=O)N1CCN(c3nnnn3-c3ccccn3)CC1)cn2CC(=O)O [B-74] | > 500
8 | COc1cnc(-c2ccn(CC(=O)O)n2)c2[nH]cc(C(=O)C(=O)N3CCN(c4nnnn4-c4ccccn4)CC3)c12 [B-75] | < 500
9 | COc1cnc(-c2ccn(CC(=O)N(C)C)n2)c2[nH]cc(C(=O)C(=O)N3CCN(c4nnnn4-c4ccccn4)CC3)c12 [B-76] | > 500
10 | CNC(=O)Cn1ccc(-c2ncc(OC)c3c(C(=O)C(=O)N4CCN(c5nnnn5-c5ccccn5)CC4)c[nH]c23)n1 [B-77] | < 500
11 | CCC(O)(CC)c1cc(-c2ncc(OC)c3c(C(=O)C(=O)N4CCN(c5nnnn5-c5ccccn5)CC4)c[nH]c23)n[nH]1 [B-78] | < 500
12 | COc1cnc(-n2cc(Cl)cn2)c2[nH]cc(C(=O)C(=O)N3CCN(c4nnnn4-c4ccccn4)CC3)c12 [B-79] | < 500
13 | COc1cnc(-n2cnc(NC(=O)C(C)(C)C)n2)c2[nH]cc(C(=O)C(=O)N3CCN(c4nnnn4-c4ccccn4)CC3)c12 [B-80] | < 500
14 | COc1cnc(-c2ccc(N3CCN(C(=O)OC(C)(C)C)CC3)cc2)c2[nH]cc(C(=O)C(=O)N3CCN(c4nnnn4-c4ccccn4)CC3)c12 [B-81] | < 500
15 | COc1cnc(-c2ccc(N3CCNCC3)cc2)c2[nH]cc(C(=O)C(=O)N3CCN(c4nnnn4-c4ccccn4)CC3)c12 [B-82] | < 500
16 | COc1cnc(-c2ccc(N3CCN(C(=O)OC(C)C)CC3)cc2)c2[nH]cc(C(=O)C(=O)N3CCN(c4nnnn4-c4ccccn4)CC3)c12 [B-83] | < 500
17 | COc1cnc(-c2ccc(N3CCN(C(=O)OCC(C)C)CC3)cc2)c2[nH]cc(C(=O)C(=O)N3CCN(c4nnnn4-c4ccccn4)CC3)c12 [B-84] | < 500
18 | CCOC(=O)N1CCN(c2ccc(-c3ncc(OC)c4c(C(=O)C(=O)N5CCN(c6nnnn6-c6ccccn6)CC5)c[nH]c34)cc2)CC1 [B-85] | < 500
19 | COc1cnc(-c2ccc(N3CCN(C(=O)NC(C)(C)C)CC3)cc2)c2[nH]cc(C(=O)C(=O)N3CCN(c4nnnn4-c4ccccn4)CC3)c12 [B-86] | < 500
20 | COc1cnc(-c2ccc(N3CCN(C(=O)NC(C)C)CC3)cc2)c2[nH]cc(C(=O)C(=O)N3CCN(c4nnnn4-c4ccccn4)CC3)c12 [B-87] | < 500
21 | COc1ncc(-c2ncc(OC)c3c(C(=O)C(=O)N4CCN(c5nnnn5-c5ccccn5)CC4)c[nH]c23)s1 [B-88] | < 500
22 | CCOc1ncc(-c2ncc(OC)c3c(C(=O)C(=O)N4CCN(c5nnnn5-c5ccccn5)CC4)c[nH]c23)s1 [B-89] | < 500
23 | COc1cnc(-c2cnc(C)s2)c2[nH]cc(C(=O)C(=O)N3CCN(c4nnnn4-c4ccccn4)CC3)c12 [B-90] | < 500

Row | Structure (SMILES) | EC50 [nM]
24 | CCc1ncc(-c2ncc(OC)c3c(C(=O)C(=O)N4CCN(c5nnnn5-c5ccccn5)CC4)c[nH]c23)s1 [B-91] | < 500
25 | COc1cnc(Nc2ccncn2)c2[nH]cc(C(=O)C(=O)N3CCN(c4nnnn4-c4ccccn4)CC3)c12 [B-92] | < 500
26 | C[C@@H]1CN(c2nnnn2-c2ccccc2)C[C@H](C)N1C(=O)C(=O)c1c[nH]c2c(-n3ccnn3)ncc(F)c12 [C-1, 1-((2R,6S)-2,6-dimethyl-4-(1-phenyl-1H-tetrazol-5-yl)piperazin-1-yl)-2-(4-fluoro-7-(1H-1,2,3-triazol-1-yl)-1H-pyrrolo[2,3-c]pyridin-3-yl)ethane-1,2-dione] | < 500
27 | COc1cnc(-n2cnc(C)n2)c2[nH]cc(C(=O)C(=O)N3CCN(c4ncccc4C#N)CC3)c12 [D-1] | < 500
28 | COc1cnc(-n2cnc(C)n2)c2[nH]cc(C(=O)C(=O)N3CCN(c4ncccc4I)CC3)c12 [D-2] | < 500
29 | COc1cnc(-n2cnc(C)n2)c2[nH]cc(C(=O)C(=O)N3CCN(c4ncccc4C)CC3)c12 [D-3] | < 500
30 | N#Cc1cccnc1N1CCN(C(=O)C(=O)c2c[nH]c3c(-n4ccnn4)ncc(F)c23)CC1 [D-4] | < 500
31 | O=C(C(=O)N1CCN(c2ncccc2I)CC1)c1c[nH]c2c(-n3ccnn3)ncc(F)c12 [D-5] | < 500
32 | Cc1cccnc1N1CCN(C(=O)C(=O)c2c[nH]c3c(-n4ccnn4)ncc(F)c23)CC1 [D-6] | < 500
33 | COc1cnc(-n2cnc(C)n2)c2[nH]cc(C(=O)C(=O)N3CCN(C4=C(c5ccccc5)C(=O)c5ccccc54)CC3)c12 [D-7] | < 500
34 | CCOC(=O)c1cccnc1N1CCN(C(=O)C(=O)c2c[nH]c3c(-n4cnc(C)n4)ncc(OC)c23)CC1 [D-8] | < 500
35 | COc1cnc(-n2cnc(C)n2)c2[nH]cc(C(=O)C(=O)N3CCN(c4nc5ccccc5nc4-n4nc(C)cc4C)CC3)c12 [D-9] | > 500
36 | COc1cnc(-n2cnc(C)n2)c2[nH]cc(C(=O)C(=O)N3CCN(c4nc(C)nc5scc(-c6ccccc6)c45)C[C@H]3C)c12 [D-10] | < 500
37 | COc1cnc(-n2cnc(C)n2)c2[nH]cc(C(=O)C(=O)N3CCN(c4ncnc5cc(-c6ccccc6)sc45)C[C@H]3C)c12 [D-11] | > 500
38 | COc1cnc(-n2cnc(C)n2)c2[nH]cc(C(=O)C(=O)N3CCN(c4ncccc4N4CC(C)(C)C4=O)C[C@H]3C)c12 [D-12] | > 500
39 | COc1cnc(-n2cnc(C)n2)c2[nH]cc(C(=O)C(=O)N3CCN(c4ncccc4C(=O)N4CCOCC4)C[C@H]3C)c12 [D-13] | > 500
40 | COc1cnc(-n2cnc(C)n2)c2[nH]cc(C(=O)C(=O)N3CCN(c4snnc4-c4ccccc4)C[C@H]3C)c12 [D-14] | < 500
41 | COc1cnc(-n2cnc(C)n2)c2[nH]cc(C(=O)C(=O)N3CCN(c4ncccc4-c4nc5ccccc5s4)CC3)c12 [D-15] | < 500
42 | COc1cnc(-n2cnc(C)n2)c2[nH]cc(C(=O)C(=O)N3CCN(c4ncccc4C(=O)NCc4ccccc4)CC3)c12 [D-16] | > 500
43 | CCOc1nccnc1N1CCN(C(=O)C(=O)c2c[nH]c3c(-n4cnc(C)n4)ncc(OC)c23)CC1 [D-17] | < 500
44 | COc1cnc(-n2cnc(C)n2)c2[nH]cc(C(=O)C(=O)N3CCN(c4nsnc4Cl)CC3)c12 [D-20] | < 500
45 | COc1cnc(-n2cnc(C)n2)c2[nH]cc(C(=O)C(=O)N3CCN(c4ncccc4C(=O)Nc4ccccc4)CC3)c12 [D-22] | > 500
46 | O=C1C(c2ccccc2)=C(N2CCN(C(=O)C(=O)c3c[nH]c4c(-n5ccnn5)ncc(F)c34)CC2)c2ccccc21 [D-23] | < 500

Row | Structure (SMILES) | EC50 [nM]
47 | CCOC(=O)c1cccnc1N1CCN(C(=O)C(=O)c2c[nH]c3c(-n4ccnn4)ncc(F)c23)CC1 [D-24] | < 500
48 | Cc1nc(N2CCN(C(=O)C(=O)c3c[nH]c4c(-n5ccnn5)ncc(F)c34)[C@H](C)C2)c2c(-c3ccccc3)csc2n1 [D-26] | > 500
49 | C[C@@H]1CN(c2ncnc3cc(-c4ccccc4)sc23)CCN1C(=O)C(=O)c1c[nH]c2c(-n3ccnn3)ncc(F)c12 [D-27] | < 500
50 | C[C@@H]1CN(c2ncccc2N2CC(C)(C)C2=O)CCN1C(=O)C(=O)c1c[nH]c2c(-n3ccnn3)ncc(F)c12 [D-28] | > 500
51 | C[C@@H]1CN(c2ncccc2C(=O)N2CCOCC2)CCN1C(=O)C(=O)c1c[nH]c2c(-n3ccnn3)ncc(F)c12 [D-29] | > 500
52 | C[C@@H]1CN(c2snnc2-c2ccccc2)CCN1C(=O)C(=O)c1c[nH]c2c(-n3ccnn3)ncc(F)c12 [D-30] | < 500
53 | O=C(C(=O)N1CCN(c2ncccc2-c2nc3ccccc3s2)CC1)c1c[nH]c2c(-n3ccnn3)ncc(F)c12 [D-31] | > 500
54 | O=C(c1ccccn1)c1cccnc1N1CCN(C(=O)C(=O)c2c[nH]c3c(-n4ccnn4)ncc(F)c23)CC1 [D-32] | < 500
55 | O=C(c1nccs1)c1cccnc1N1CCN(C(=O)C(=O)c2c[nH]c3c(-n4ccnn4)ncc(F)c23)CC1 [D-33] | < 500
56 | O=C(NC1CCCCC1)c1cccnc1N1CCN(C(=O)C(=O)c2c[nH]c3c(-n4ccnn4)ncc(F)c23)CC1 [D-34] | < 500
57 | CC(C)Oc1nccnc1N1CCN(C(=O)C(=O)c2c[nH]c3c(-n4ccnn4)ncc(F)c23)CC1 [D-35] | < 500
58 | C[C@@H]1CN(c2nn(C)c(=O)cc2-c2ccccc2)CCN1C(=O)C(=O)c1c[nH]c2c(-n3ccnn3)ncc(F)c12 [D-36] | > 500
59 | CN(C)CCCNC(=O)c1cccnc1N1CCN(C(=O)C(=O)c2c[nH]c3c(-n4ccnn4)ncc(F)c23)CC1 [D-37] | > 500
60 | O=C(C(=O)N1CCN(c2ncccc2C(=O)N2CCOCC2)CC1)c1c[nH]c2c(-n3ccnn3)ncc(F)c12 [D-38] | > 500
61 | Cc1cc(NC(=O)c2cccnc2N2CCN(C(=O)C(=O)c3c[nH]c4c(-n5ccnn5)ncc(F)c34)CC2)no1 [D-39] | > 500
62 | CCOC(=O)CCC(=O)c1cccnc1N1CCN(C(=O)C(=O)c2c[nH]c3c(-n4ccnn4)ncc(F)c23)CC1 [D-40] | > 500
63 | CCOC(=O)CCCC(=O)c1cccnc1N1CCN(C(=O)C(=O)c2c[nH]c3c(-n4ccnn4)ncc(F)c23)CC1 [D-41] | > 500
64 | CCOC(=O)CCCCC(=O)c1cccnc1N1CCN(C(=O)C(=O)c2c[nH]c3c(-n4ccnn4)ncc(F)c23)CC1 [D-42] | > 500
65 | CCOC(=O)CCCCCC(=O)c1cccnc1N1CCN(C(=O)C(=O)c2c[nH]c3c(-n4ccnn4)ncc(F)c23)CC1 [D-43] | > 500
66 | CCOC(=O)CCCCCCC(=O)c1cccnc1N1CCN(C(=O)C(=O)c2c[nH]c3c(-n4ccnn4)ncc(F)c23)CC1 [D-44] | > 500
67 | N#CCCC(=O)c1cccnc1N1CCN(C(=O)C(=O)c2c[nH]c3c(-n4ccnn4)ncc(F)c23)CC1 [D-45] | > 500
